In one experiment the target is T1, P300 (Homo sapiens, UniProt Q09472).
T1 construct: endogenous in cells; host or cells: 22Rv1 (ATCC CRL-2505) human prostate cancer cells
Briefly: P300 degradation in 22Rv1 cells (5 h). Format: cell-based. As to conditions: for Dmax: read-out: P300 Degradation (22Rv1, 5 h) DCmax. The source says:
(§1) Biological Assays. […] Cells with 3-8 passages after purchase were used in experiments.

The test system of another experiment is HL60. In words: Cell growth inhibition in HL60. Format: cell-based. The note with it: Homo sapiens, HL-60, HL60 cells; read-out: Cell Growth Inhibition (IC50) HL60.
For the next experiment, the system named is 22Rv1 cells. Briefly: Cell growth inhibition assay (CellTiter-Glo) in 22Rv1. Format: cell-based, human. The note with it: Homo sapiens, 22Rv1 cells, 96 h incubation, read-out: Cell Growth Inhibition (IC50) 22Rv1. In a few lines:
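22Rv1 prostate cancer cells (passages 3-8, DMEM with 10% FBS) were seeded at 4000 cells/well with compound, 3-fold dilutions from 10 μM final. After 96 h at 37° C and 5% CO2, growth was read by CellTiter-Glo 2.0 luminescence.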
In general terms: Cellular ATP, detected with luciferase, serves as a proxy for viable cell number.

The next experiment has as its target T2, CBP (Homo sapiens, UniProt Q92793).
T2 construct: endogenous in cells; host or cells: 22Rv1 (ATCC CRL-2505) human prostate cancer cells
In words: CBP degradation in 22Rv1 cells (5 h). As to conditions: for Dmax: 22Rv1, 5 h, read-out: CBP Degradation (22Rv1, 5 h) DCmax. It is filed as cell-based.
From the text: as §1

Each structure is given as a SMILES string. Read-outs that look alike come from different tables or passages of the source.

T2 sequence (Q92793 whole entry): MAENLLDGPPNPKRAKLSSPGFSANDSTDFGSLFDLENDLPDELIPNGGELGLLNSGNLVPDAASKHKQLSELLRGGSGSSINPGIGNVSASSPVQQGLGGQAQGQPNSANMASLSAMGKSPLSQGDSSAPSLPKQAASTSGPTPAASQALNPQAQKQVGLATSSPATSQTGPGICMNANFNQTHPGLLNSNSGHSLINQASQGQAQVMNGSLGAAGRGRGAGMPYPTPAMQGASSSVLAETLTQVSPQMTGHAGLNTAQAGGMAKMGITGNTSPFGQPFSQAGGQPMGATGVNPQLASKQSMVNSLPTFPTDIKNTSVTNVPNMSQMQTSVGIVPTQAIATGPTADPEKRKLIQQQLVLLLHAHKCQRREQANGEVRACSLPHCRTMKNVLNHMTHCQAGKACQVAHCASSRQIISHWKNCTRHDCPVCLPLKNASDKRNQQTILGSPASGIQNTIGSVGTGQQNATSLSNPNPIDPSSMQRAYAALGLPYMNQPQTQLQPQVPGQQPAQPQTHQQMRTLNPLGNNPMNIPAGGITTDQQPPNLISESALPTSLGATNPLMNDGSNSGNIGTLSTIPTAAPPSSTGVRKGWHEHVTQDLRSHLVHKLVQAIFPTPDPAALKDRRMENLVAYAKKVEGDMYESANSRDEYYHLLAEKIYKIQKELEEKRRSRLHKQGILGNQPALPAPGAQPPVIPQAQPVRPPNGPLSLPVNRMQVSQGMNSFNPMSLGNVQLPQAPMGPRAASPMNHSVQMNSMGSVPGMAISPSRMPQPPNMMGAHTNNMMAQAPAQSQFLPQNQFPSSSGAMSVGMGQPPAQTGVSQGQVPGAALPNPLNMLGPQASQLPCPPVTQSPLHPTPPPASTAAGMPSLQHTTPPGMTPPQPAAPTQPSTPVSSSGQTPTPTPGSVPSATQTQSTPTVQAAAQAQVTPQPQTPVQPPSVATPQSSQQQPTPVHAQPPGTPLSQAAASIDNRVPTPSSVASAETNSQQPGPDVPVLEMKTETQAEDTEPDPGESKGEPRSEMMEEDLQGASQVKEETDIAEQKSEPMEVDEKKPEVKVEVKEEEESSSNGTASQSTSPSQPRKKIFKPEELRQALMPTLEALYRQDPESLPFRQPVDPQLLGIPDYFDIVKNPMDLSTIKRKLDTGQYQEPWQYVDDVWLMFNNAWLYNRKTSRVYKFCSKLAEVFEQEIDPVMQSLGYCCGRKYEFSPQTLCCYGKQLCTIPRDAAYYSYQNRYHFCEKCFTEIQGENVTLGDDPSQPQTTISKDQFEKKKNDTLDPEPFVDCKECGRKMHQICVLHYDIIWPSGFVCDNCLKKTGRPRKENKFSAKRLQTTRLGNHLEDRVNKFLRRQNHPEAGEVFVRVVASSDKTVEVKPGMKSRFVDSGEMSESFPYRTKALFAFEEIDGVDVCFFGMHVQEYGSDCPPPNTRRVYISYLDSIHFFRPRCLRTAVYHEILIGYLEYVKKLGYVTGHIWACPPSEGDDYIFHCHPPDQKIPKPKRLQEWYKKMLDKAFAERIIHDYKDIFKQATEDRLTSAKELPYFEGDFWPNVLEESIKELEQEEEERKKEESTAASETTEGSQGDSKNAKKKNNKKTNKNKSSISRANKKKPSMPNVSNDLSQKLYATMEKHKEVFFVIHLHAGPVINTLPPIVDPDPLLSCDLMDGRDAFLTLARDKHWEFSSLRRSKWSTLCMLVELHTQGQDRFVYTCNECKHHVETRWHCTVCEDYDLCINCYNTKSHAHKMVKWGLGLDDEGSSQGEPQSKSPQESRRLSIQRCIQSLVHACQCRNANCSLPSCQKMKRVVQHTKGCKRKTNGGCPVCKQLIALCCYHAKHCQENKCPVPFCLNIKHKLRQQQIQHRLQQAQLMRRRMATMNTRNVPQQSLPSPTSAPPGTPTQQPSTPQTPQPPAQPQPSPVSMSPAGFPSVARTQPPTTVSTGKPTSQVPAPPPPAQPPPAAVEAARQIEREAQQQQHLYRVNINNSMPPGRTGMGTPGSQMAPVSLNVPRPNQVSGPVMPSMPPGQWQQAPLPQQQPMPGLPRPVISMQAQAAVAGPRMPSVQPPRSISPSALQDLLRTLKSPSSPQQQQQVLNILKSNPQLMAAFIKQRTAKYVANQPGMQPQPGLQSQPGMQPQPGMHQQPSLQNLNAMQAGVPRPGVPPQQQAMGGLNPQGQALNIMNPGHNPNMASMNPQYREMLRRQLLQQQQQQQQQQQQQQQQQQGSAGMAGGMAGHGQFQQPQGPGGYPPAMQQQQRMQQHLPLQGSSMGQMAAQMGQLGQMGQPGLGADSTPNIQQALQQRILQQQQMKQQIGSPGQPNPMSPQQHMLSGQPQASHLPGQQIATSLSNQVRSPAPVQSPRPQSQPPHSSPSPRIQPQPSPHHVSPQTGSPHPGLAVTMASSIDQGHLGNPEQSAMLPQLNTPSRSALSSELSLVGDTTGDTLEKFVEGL
T1 sequence (Q09472 whole entry): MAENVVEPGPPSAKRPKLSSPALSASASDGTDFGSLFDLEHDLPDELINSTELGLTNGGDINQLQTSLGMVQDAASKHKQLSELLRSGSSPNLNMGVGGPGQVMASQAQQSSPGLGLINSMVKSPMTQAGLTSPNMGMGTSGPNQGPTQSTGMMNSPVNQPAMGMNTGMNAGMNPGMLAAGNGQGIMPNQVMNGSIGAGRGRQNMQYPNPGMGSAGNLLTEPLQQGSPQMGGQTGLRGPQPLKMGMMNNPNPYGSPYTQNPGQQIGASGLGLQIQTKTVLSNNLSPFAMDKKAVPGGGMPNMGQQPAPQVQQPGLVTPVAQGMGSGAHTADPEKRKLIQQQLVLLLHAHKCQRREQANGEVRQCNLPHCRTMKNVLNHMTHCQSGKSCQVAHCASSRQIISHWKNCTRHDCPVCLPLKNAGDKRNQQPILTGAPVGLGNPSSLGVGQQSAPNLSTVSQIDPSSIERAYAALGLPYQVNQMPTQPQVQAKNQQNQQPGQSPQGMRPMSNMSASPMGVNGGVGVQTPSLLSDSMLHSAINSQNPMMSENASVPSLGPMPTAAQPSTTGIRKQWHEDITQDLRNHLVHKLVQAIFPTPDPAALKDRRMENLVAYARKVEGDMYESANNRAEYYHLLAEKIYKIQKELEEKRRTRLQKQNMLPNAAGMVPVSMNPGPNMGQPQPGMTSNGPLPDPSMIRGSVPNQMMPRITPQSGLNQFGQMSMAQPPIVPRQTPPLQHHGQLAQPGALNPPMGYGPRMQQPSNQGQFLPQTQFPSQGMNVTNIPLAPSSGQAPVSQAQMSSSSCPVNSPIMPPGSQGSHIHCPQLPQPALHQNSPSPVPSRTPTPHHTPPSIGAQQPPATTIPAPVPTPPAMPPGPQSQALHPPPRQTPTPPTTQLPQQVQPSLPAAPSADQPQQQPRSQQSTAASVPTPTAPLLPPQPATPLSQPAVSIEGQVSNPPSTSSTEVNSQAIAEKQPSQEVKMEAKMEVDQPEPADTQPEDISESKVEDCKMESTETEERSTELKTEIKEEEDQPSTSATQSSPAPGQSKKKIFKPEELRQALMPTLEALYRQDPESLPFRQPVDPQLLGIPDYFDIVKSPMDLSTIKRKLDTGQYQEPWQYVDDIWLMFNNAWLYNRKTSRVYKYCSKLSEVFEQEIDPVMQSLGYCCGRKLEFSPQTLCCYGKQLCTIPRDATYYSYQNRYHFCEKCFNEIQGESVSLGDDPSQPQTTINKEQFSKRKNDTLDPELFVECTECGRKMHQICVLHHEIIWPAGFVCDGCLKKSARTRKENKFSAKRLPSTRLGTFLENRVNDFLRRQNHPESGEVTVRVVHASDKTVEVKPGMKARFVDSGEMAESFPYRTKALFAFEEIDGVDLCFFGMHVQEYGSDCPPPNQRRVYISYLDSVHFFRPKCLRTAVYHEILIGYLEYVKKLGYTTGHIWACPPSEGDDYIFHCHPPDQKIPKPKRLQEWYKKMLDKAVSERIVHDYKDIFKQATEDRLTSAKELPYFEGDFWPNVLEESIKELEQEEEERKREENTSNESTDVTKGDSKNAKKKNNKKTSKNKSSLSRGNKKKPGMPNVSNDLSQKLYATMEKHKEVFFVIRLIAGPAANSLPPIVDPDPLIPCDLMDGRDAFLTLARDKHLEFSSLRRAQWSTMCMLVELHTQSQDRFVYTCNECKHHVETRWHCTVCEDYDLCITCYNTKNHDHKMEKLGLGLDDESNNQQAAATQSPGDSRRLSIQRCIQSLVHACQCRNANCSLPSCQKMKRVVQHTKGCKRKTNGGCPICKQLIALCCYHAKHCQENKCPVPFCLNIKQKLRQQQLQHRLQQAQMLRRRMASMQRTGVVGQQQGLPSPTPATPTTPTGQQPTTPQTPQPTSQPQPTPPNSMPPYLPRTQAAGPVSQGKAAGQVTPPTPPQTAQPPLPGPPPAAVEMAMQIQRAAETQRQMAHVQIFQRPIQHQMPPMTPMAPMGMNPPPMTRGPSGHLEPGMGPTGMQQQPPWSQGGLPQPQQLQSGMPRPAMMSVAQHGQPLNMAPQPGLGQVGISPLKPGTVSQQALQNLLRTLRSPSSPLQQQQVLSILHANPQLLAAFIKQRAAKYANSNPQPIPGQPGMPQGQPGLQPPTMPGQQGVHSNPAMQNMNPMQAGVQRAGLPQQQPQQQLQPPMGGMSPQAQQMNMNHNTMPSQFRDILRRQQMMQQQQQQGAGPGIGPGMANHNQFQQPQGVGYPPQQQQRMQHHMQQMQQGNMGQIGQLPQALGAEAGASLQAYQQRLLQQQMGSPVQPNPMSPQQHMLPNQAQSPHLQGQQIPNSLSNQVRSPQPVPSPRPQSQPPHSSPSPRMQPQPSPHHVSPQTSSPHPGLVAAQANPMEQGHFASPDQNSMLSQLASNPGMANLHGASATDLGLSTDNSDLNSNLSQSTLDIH

The term DC50 denotes the concentration giving 50% degradation. High values mean a less potent degrader, low ones a more potent degrader. Usually IC50 stands for the concentration that gives 50% inhibition. On to `CC(=O)N1Cc2c(N3CCCc4cc(-c5cnn(C)c5)c(C(F)F)cc43)nn(C3CCN(C(=O)CN4Cc5cc6c(cc5C4)C(=O)N(C4CCC(=O)NC4=O)C6=O)CC3)c2C(C)(C)C1` (stereo not drawn) [CP-084, 6-(2-(4-(5-acetyl-3-(7-(difluoromethyl)-6-(1-methyl-1H-pyrazol-4-yl)-3,4-dihydroquinolin-1(2H)-yl)-7,7-dimethyl-4,5,6,7-tetrahydro-1H-pyrazolo[4,3-c]pyridin-1-yl)piperidin-1-yl)-2-oxoethyl)-2-(2,6-dioxopiperidin-3-yl)-6,7-dihydropyrrolo[3,4-f]isoindole-1,3(2H,5H)-dione], for which the DC50 on P300 (22Rv1 cells, 5 h) is above 1000 nM; on CBP (22Rv1 cells, 5 h), above 1000 nM. Moreover, the Dmax on P300 (22Rv1 cells, 5 h) is below 50%; at CBP (22Rv1 cells, 5 h) it was below 50%. Moreover, the IC50 was above 10000 nM in the experiment with HL60 and above 10000 nM in the experiment with 22Rv1 cells (22Rv1, 96 h).

Turning to `Cn1cc(-c2cc3c(cc2C(F)F)N(c2nn(C4CCN(C(=O)CN5Cc6cc7c(cc6C5)C(=O)N(C5CCC(=O)NC5=O)C7=O)CC4)c4c2CN(C(=O)CF)CC4)CCC3)cn1` (stereo not drawn) [CP-053, 6-(2-(4-(3-(7-(difluoromethyl)-6-(1-methyl-1H-pyrazol-4-yl)-3,4-dihydroquinolin-1(2H)-yl)-5-(2-fluoroacetyl)-4,5,6,7-tetrahydro-1H-pyrazolo[4,3-c]pyridin-1-yl)piperidin-1-yl)-2-oxoethyl)-2-(2,6-dioxopiperidin-3-yl)-6,7-dihydropyrrolo[3,4-f]isoindole-1,3(2H,5H)-dione], the Dmax is above 50% on P300 (22Rv1, 5 h) and above 70% on CBP. In addition, the DC50 was below 100 nM at P300 (22Rv1 cells, 5 h) and below 10 nM at CBP (22Rv1 cells, 5 h). Further, the IC50 with HL60 and in the experiment on 22Rv1 cells was below 1000 nM throughout.

Take `CC(=O)N1CCc2c(c(N3CCCc4cc(-c5ccc(F)cc5)c(C(F)F)cc43)nn2C2CCN(C(=O)CN3Cc4cc5c(cc4C3)C(=O)N(C3CCC(=O)NC3=O)C5=O)CC2)C1` (stereo not drawn) [CP-023, 6-(2-(4-(5-acetyl-3-(7-(difluoromethyl)-6-(4-fluorophenyl)-3,4-dihydroquinolin-1(2H)-yl)-4,5,6,7-tetrahydro-1H-pyrazolo[4,3-c]pyridin-1-yl)piperidin-1-yl)-2-oxoethyl)-2-(2,6-dioxopiperidin-3-yl)-6,7-dihydropyrrolo[3,4-f]isoindole-1,3(2H,5H)-dione]: the DC50 was below 10 nM on P300 (22Rv1 cells, 5 h) and below 10 nM at CBP (22Rv1 cells, 5 h). The Dmax at P300 (22Rv1 cells, 5 h) is above 70%; on CBP (22Rv1 cells, 5 h) it was above 90%. Moreover, the IC50 in the experiment on HL60 was below 100 nM; in the experiment on 22Rv1 cells (22Rv1, 96 h) it was below 1000 nM.

Take `CC(=O)N1CCc2c(c(N3CCCc4cc(C5CCCCC5)c(C(F)F)cc43)nn2C2CCN(C(=O)CN3Cc4cc5c(cc4C3)C(=O)N(C3CCC(=O)NC3=O)C5=O)CC2)C1` (stereo not drawn) [CP-021, 6-(2-(4-(5-acetyl-3-(6-cyclohexyl-7-(difluoromethyl)-3,4-dihydroquinolin-1(2H)-yl)-4,5,6,7-tetrahydro-1H-pyrazolo[4,3-c]pyridin-1-yl)piperidin-1-yl)-2-oxoethyl)-2-(2,6-dioxopiperidin-3-yl)-6,7-dihydropyrrolo[3,4-f]isoindole-1,3(2H,5H)-dione]: the DC50 was below 10 nM on P300 (22Rv1 cells, 5 h) and below 10 nM at CBP (22Rv1 cells, 5 h). Also, the Dmax on P300 (22Rv1 cells, 5 h) is above 70%; on CBP (22Rv1 cells, 5 h), above 90%. The IC50 is below 100 nM with HL60 and below 1000 nM with 22Rv1 cells (22Rv1, 96 h).

As to `CC(=O)N1CCc2c(c(N3CCCc4cc(-c5cnn(C)c5)c(C(F)F)cc43)nn2C2CCC(CCN3CCc4cc5c(cc4C3)C(=O)N(C3CCC(=O)NC3=O)C5=O)CC2)C1` (stereo not drawn) [CP-045, 6-(2-(4-(5-acetyl-3-(7-(difluoromethyl)-6-(1-methyl-1H-pyrazol-4-yl)-3,4-dihydroquinolin-1(2H)-yl)-4,5,6,7-tetrahydro-1H-pyrazolo[4,3-c]pyridin-1-yl)cyclohexyl)ethyl)-2-(2,6-dioxopiperidin-3-yl)-5,6,7,8-tetrahydro-1H-pyrrolo[3,4-g]isoquinoline-1,3(2H)-dione], the DC50 on P300 (22Rv1 cells, 5 h) is below 10 nM; on CBP (22Rv1 cells, 5 h) it was below 10 nM. Besides, the Dmax was above 70% at P300 (22Rv1 cells, 5 h) and above 90% at CBP (22Rv1 cells, 5 h). Besides, the IC50 is below 100 nM with HL60 and below 100 nM in the experiment with 22Rv1 cells (22Rv1, 96 h).

For `Cn1cc(-c2cc3c(cc2C(F)F)N(c2nn(C4CCN(C(=O)CN5Cc6cc7c(cc6C5)C(=O)N(C5CCC(=O)NC5=O)C7=O)CC4)c4c2CN(CC(F)F)CC4)CCC3)cn1` (stereo not drawn) [CP-058, 6-(2-(4-(5-(2,2-difluoroethyl)-3-(7-(difluoromethyl)-6-(1-methyl-1H-pyrazol-4-yl)-3,4-dihydroquinolin-1(2H)-yl)-4,5,6,7-tetrahydro-1H-pyrazolo[4,3-c]pyridin-1-yl)piperidin-1-yl)-2-oxoethyl)-2-(2,6-dioxopiperidin-3-yl)-6,7-dihydropyrrolo[3,4-f]isoindole-1,3(2H,5H)-dione], the DC50 on P300 (22Rv1 cells, 5 h) was above 1000 nM; at CBP (22Rv1 cells, 5 h), above 1000 nM. The Dmax at P300 (22Rv1 cells, 5 h) was below 50%; at CBP (22Rv1 cells, 5 h), below 50%. Moreover, the IC50 with HL60 was above 10000 nM; in the experiment with 22Rv1 cells (22Rv1, 96 h), above 10000 nM.

For `Cc1noc(C)c1-c1ccc2c(c1)nc([C@@H]1CCCC(=O)N1c1ccc(F)c(F)c1)n2C1CCN(C(=O)CN2Cc3cc4c(cc3C2)C(=O)N(C2CCC(=O)NC2=O)C4)CC1` (stereo partly drawn) [CP-062, 3-(6-(2-(4-(2-((S)-1-(3,4-difluorophenyl)-6-oxopiperidin-2-yl)-5-(3,5-dimethylisoxazol-4-yl)-1H-benzo[d]imidazol-1-yl)piperidin-1-yl)-2-oxoethyl)-1-oxo-3,5,6,7-tetrahydropyrrolo[3,4-f]isoindol-2(1H)-yl)piperidine-2,6-dione], the DC50 on P300 (22Rv1 cells, 5 h) was below 100 nM; at CBP (22Rv1 cells, 5 h), below 1000 nM. For the same compound, the Dmax on P300 (22Rv1 cells, 5 h) is above 50%; on CBP (22Rv1 cells, 5 h), below 50%. Further, the IC50 was above 10000 nM in the experiment on HL60 and above 10000 nM in the experiment on 22Rv1 cells (22Rv1, 96 h).

Take `CCc1cc2c(cc1C(F)F)N(c1nn(C3CCN(C(=O)CN4Cc5cc6c(cc5C4)C(=O)N(C4CCC(=O)NC4=O)C6=O)CC3)c3c1CN(C(C)=O)CC3)CCC2` (stereo not drawn) [CP-012, 6-(2-(4-(5-acetyl-3-(7-(difluoromethyl)-6-ethyl-3,4-dihydroquinolin-1(2H)-yl)-4,5,6,7-tetrahydro-1H-pyrazolo[4,3-c]pyridin-1-yl)piperidin-1-yl)-2-oxoethyl)-2-(2,6-dioxopiperidin-3-yl)-6,7-dihydropyrrolo[3,4-f]isoindole-1,3(2H,5H)-dione]: the DC50 is below 10 nM on P300 (22Rv1 cells, 5 h) and below 10 nM on CBP (22Rv1 cells, 5 h). The Dmax was above 70% at P300 (22Rv1 cells, 5 h) and above 90% at CBP (22Rv1 cells, 5 h). Also, the IC50 was below 100 nM with HL60 and below 1000 nM with 22Rv1 cells (22Rv1, 96 h).

Take `CC(=O)N1CCc2c(c(N3CCCc4cc(-c5ccccc5)c(C(F)F)cc43)nn2C2CCN(C(=O)CN3Cc4cc5c(cc4C3)C(=O)N(C3CCC(=O)NC3=O)C5=O)CC2)C1` (stereo not drawn) [CP-022, 6-(2-(4-(5-acetyl-3-(7-(difluoromethyl)-6-phenyl-3,4-dihydroquinolin-1(2H)-yl)-4,5,6,7-tetrahydro-1H-pyrazolo[4,3-c]pyridin-1-yl)piperidin-1-yl)-2-oxoethyl)-2-(2,6-dioxopiperidin-3-yl)-6,7-dihydropyrrolo[3,4-f]isoindole-1,3(2H,5H)-dione]: the DC50 is below 10 nM at P300 (22Rv1 cells, 5 h) and below 10 nM at CBP (22Rv1 cells, 5 h). Also, the Dmax was above 90% on P300 (22Rv1 cells, 5 h) and above 90% at CBP (22Rv1 cells, 5 h). The IC50 in the experiment with HL60 was below 100 nM; in the experiment with 22Rv1 cells (22Rv1, 96 h), below 100 nM.

As for `CC(=O)N1CCc2c(c(N3CCCc4cc(Cl)c(C(F)F)cc43)nn2C2CCN(C(=O)CN3CCc4cc5c(cc4C3)C(=O)N(C3CCC(=O)NC3=O)C5=O)CC2)C1` (stereo not drawn) [CP-018, 6-(2-(4-(5-acetyl-3-(6-chloro-7-(difluoromethyl)-3,4-dihydroquinolin-1(2H)-yl)-4,5,6,7-tetrahydro-1H-pyrazolo[4,3-c]pyridin-1-yl)piperidin-1-yl)-2-oxoethyl)-2-(2,6-dioxopiperidin-3-yl)-5,6,7,8-tetrahydro-1H-pyrrolo[3,4-g]isoquinoline-1,3(2H)-dione], the DC50 at P300 (22Rv1 cells, 5 h) was above 1000 nM; on CBP (22Rv1 cells, 5 h) it was below 1000 nM. Moreover, the Dmax at P300 (22Rv1 cells, 5 h) was below 50%; on CBP (22Rv1 cells, 5 h), below 50%. Further, the IC50 was above 10000 nM in the experiment with HL60 and above 10000 nM in the experiment on 22Rv1 cells (22Rv1, 96 h).

For `Cn1cc(-c2cc3c(cc2C(F)F)N(c2nn(C4CCN(C(=O)CN5Cc6cc7c(cc6C5)C(=O)N(C5CCC(=O)NC5=O)C7=O)CC4)c4c2CN(CC(C)(F)F)CC4)CCC3)cn1` (stereo not drawn) [CP-059, 6-(2-(4-(3-(7-(difluoromethyl)-6-(1-methyl-1H-pyrazol-4-yl)-3,4-dihydroquinolin-1(2H)-yl)-5-(2,2-difluoropropyl)-4,5,6,7-tetrahydro-1H-pyrazolo[4,3-c]pyridin-1-yl)piperidin-1-yl)-2-oxoethyl)-2-(2,6-dioxopiperidin-3-yl)-6,7-dihydropyrrolo[3,4-f]isoindole-1,3(2H,5H)-dione], the DC50 at P300 (22Rv1 cells, 5 h) was above 1000 nM; on CBP (22Rv1 cells, 5 h), above 1000 nM. Further, the Dmax on P300 (22Rv1 cells, 5 h) is below 50%; at CBP (22Rv1 cells, 5 h), below 50%. The IC50 in the experiment with HL60 is below 10000 nM; in the experiment on 22Rv1 cells (22Rv1, 96 h), above 10000 nM.

(Values after US20240150360A1 (THE REGENTS OF THE UNIVERSITY OF MICHIGAN, priority 2021, published 2024).)
